Source: ChEMBL document CHEMBL4814007, “Structure-based discovery of SIAIS001 as an oral bioavailability ALK degrader constructed from Alectinib” (Eur J Med Chem, 2021)
pIC50: −log10 of the molar value. Each block holds one compound with its values, some of them ahead of it. Calls of active or inactive are those of the source. The rule behind the calls is not given here.

Experiments:
SR [1] = test: Antiproliferative activity against ALK positive human SR cells; assay type: functional, cell-based
[2] = molecular target: T1, von Hippel-Lindau disease tumor suppressor/ALK tyrosine kinase receptor (Homo sapiens) (UniProt Q9UM73+P40337); test: Protac activity at VHL1/ALK in human SR cells assessed as increase in ALK degradation at 500 nM by Western blot analysis; assay type: cell-based
[3] = molecular target: T2, Protein cereblon/ALK tyrosine kinase receptor (Homo sapiens, UniProt Q9UM73+Q96SW2); test: Protac activity at CRBN/ALK in human SR cells assessed as increase in ALK degradation at 500 nM by Western blot analysis; assay type: cell-based
Target sequence in this assay (Q96SW2 whole entry partner): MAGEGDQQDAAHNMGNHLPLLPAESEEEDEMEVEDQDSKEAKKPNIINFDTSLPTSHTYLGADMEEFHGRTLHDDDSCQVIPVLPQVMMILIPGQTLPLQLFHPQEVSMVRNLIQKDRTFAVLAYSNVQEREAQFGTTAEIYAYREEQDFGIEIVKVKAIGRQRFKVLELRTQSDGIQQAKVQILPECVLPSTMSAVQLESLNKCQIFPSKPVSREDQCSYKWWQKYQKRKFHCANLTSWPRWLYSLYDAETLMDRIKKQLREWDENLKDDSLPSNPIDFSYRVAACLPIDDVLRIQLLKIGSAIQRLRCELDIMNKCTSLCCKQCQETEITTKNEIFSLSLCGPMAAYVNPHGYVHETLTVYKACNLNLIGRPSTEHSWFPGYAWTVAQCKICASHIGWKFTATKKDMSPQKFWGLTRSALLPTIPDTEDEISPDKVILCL
Target sequence in this assay (Q9UM73 19-1620 limits assumed): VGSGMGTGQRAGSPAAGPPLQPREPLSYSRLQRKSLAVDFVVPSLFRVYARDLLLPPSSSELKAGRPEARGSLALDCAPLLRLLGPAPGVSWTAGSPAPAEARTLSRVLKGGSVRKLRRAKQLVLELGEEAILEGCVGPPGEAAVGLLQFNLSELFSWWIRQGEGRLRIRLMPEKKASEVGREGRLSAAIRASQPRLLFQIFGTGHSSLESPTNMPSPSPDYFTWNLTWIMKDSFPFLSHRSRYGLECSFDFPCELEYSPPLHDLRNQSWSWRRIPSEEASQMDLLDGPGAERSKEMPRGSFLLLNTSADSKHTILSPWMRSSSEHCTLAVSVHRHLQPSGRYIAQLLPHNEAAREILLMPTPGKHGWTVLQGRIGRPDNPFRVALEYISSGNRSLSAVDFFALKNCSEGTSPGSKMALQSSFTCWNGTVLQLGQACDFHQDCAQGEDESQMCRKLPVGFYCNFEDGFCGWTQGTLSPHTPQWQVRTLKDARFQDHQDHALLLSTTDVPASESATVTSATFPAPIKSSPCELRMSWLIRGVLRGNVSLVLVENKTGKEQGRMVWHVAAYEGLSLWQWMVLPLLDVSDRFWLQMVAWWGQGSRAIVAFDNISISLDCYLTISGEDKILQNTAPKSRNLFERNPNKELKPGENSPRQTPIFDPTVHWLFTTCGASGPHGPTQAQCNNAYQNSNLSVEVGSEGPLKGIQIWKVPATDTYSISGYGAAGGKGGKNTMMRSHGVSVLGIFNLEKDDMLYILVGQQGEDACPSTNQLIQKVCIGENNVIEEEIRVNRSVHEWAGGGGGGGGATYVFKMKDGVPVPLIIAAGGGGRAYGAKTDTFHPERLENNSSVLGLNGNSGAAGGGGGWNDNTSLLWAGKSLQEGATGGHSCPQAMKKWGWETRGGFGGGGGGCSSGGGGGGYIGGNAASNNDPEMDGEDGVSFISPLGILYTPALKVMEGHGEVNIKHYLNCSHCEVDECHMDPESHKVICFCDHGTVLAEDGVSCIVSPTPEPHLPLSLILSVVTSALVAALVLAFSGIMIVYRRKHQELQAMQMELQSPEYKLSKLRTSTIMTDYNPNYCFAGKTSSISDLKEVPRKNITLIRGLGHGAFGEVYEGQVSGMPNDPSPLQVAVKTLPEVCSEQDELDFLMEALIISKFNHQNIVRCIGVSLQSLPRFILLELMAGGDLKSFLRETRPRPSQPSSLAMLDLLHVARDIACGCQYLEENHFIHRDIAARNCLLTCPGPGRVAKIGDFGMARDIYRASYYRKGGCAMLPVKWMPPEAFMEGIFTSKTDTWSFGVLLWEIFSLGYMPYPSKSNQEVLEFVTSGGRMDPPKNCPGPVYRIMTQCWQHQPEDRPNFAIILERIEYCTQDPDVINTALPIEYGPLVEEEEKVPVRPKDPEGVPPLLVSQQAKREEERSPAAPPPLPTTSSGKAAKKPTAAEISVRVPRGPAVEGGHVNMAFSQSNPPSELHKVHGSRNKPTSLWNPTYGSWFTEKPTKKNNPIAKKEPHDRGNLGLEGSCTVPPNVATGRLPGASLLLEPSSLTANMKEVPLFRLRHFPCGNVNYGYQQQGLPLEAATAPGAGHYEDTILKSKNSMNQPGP

[4] = molecular target: T2, Protein cereblon/ALK tyrosine kinase receptor; test: Protac activity at CRBN/ALK in human SR cells assessed as protein abundance at 5 nM by Western blot analysis (reference value: 1); assay type: cell-based
Target sequence in this assay (Q96SW2 whole entry partner): as the sequence (Q96SW2 whole entry partner) above
Target sequence in this assay (Q9UM73 19-1620 limits assumed): as the sequence (Q9UM73 19-1620 limits assumed) above

[5] = molecular target: T2, Protein cereblon/ALK tyrosine kinase receptor; test: Protac activity at CRBN/ALK in human SR cells assessed as protein abundance at 0.05 nM by Western blot analysis (reference value: 1); assay type: cell-based
Target sequence in this assay (Q96SW2 whole entry partner): as the sequence (Q96SW2 whole entry partner) above
Target sequence in this assay (Q9UM73 19-1620 limits assumed): as the sequence (Q9UM73 19-1620 limits assumed) above

[6] = molecular target: T2, Protein cereblon/ALK tyrosine kinase receptor; test: Protac activity at CRBN/ALK in human SR cells assessed as protein abundance at 0.5 nM by Western blot analysis (reference value: 1); assay type: cell-based
Target sequence in this assay (Q96SW2 whole entry partner): as the sequence (Q96SW2 whole entry partner) above
Target sequence in this assay (Q9UM73 19-1620 limits assumed): as the sequence (Q9UM73 19-1620 limits assumed) above

[7] = molecular target: T2, Protein cereblon/ALK tyrosine kinase receptor; test: Protac activity at CRBN/ALK in human SR cells assessed as protein abundance at 50 nM by Western blot analysis (reference value: 1); assay type: cell-based
Target sequence in this assay (Q96SW2 whole entry partner): as the sequence (Q96SW2 whole entry partner) above
Target sequence in this assay (Q9UM73 19-1620 limits assumed): as the sequence (Q9UM73 19-1620 limits assumed) above

[8] = molecular target: T2, Protein cereblon/ALK tyrosine kinase receptor; test: Protac activity at CRBN/ALK in human SR cells assessed as protein abundance at 500 nM by Western blot analysis (reference value: 1); assay type: cell-based
Target sequence in this assay (Q96SW2 whole entry partner): as the sequence (Q96SW2 whole entry partner) above
Target sequence in this assay (Q9UM73 19-1620 limits assumed): as the sequence (Q9UM73 19-1620 limits assumed) above

[9] = molecular target: T1, von Hippel-Lindau disease tumor suppressor/ALK tyrosine kinase receptor (Homo sapiens); test: Protac activity at VHL/ALK in human SR cells assessed as protein abundance at 0.05 nM by Western blot analysis (reference value: 1); assay type: cell-based
[10] = molecular target: T1, von Hippel-Lindau disease tumor suppressor/ALK tyrosine kinase receptor (Homo sapiens); test: Protac activity at VHL/ALK in human SR cells assessed as protein abundance at 0.5 nM by Western blot analysis (reference value: 1); assay type: cell-based
[11] = molecular target: T1, von Hippel-Lindau disease tumor suppressor/ALK tyrosine kinase receptor (Homo sapiens); test: Protac activity at VHL/ALK in human SR cells assessed as protein abundance at 5 nM by Western blot analysis (reference value: 1); assay type: cell-based
[12] = molecular target: T1, von Hippel-Lindau disease tumor suppressor/ALK tyrosine kinase receptor (Homo sapiens); test: Protac activity at VHL/ALK in human SR cells assessed as protein abundance at 50 nM by Western blot analysis (reference value: 1); assay type: cell-based
[13] = molecular target: T1, von Hippel-Lindau disease tumor suppressor/ALK tyrosine kinase receptor (Homo sapiens); test: Protac activity at VHL/ALK in human SR cells assessed as protein abundance at 500 nM by Western blot analysis (reference value: 1); assay type: cell-based
SR [14] = test: Potency index, ratio of alectinib IC50 to test compound IC50 for antiproliferative activity against ALK positive human SR cells; assay type: functional
[15] = molecular target: T2, Protein cereblon/ALK tyrosine kinase receptor; test: Protac activity at CRBN/ALK in human SR cells assessed as induction of ALK degradation by Western blot analysis; assay type: cell-based
Target sequence in this assay (Q9UM73 whole entry): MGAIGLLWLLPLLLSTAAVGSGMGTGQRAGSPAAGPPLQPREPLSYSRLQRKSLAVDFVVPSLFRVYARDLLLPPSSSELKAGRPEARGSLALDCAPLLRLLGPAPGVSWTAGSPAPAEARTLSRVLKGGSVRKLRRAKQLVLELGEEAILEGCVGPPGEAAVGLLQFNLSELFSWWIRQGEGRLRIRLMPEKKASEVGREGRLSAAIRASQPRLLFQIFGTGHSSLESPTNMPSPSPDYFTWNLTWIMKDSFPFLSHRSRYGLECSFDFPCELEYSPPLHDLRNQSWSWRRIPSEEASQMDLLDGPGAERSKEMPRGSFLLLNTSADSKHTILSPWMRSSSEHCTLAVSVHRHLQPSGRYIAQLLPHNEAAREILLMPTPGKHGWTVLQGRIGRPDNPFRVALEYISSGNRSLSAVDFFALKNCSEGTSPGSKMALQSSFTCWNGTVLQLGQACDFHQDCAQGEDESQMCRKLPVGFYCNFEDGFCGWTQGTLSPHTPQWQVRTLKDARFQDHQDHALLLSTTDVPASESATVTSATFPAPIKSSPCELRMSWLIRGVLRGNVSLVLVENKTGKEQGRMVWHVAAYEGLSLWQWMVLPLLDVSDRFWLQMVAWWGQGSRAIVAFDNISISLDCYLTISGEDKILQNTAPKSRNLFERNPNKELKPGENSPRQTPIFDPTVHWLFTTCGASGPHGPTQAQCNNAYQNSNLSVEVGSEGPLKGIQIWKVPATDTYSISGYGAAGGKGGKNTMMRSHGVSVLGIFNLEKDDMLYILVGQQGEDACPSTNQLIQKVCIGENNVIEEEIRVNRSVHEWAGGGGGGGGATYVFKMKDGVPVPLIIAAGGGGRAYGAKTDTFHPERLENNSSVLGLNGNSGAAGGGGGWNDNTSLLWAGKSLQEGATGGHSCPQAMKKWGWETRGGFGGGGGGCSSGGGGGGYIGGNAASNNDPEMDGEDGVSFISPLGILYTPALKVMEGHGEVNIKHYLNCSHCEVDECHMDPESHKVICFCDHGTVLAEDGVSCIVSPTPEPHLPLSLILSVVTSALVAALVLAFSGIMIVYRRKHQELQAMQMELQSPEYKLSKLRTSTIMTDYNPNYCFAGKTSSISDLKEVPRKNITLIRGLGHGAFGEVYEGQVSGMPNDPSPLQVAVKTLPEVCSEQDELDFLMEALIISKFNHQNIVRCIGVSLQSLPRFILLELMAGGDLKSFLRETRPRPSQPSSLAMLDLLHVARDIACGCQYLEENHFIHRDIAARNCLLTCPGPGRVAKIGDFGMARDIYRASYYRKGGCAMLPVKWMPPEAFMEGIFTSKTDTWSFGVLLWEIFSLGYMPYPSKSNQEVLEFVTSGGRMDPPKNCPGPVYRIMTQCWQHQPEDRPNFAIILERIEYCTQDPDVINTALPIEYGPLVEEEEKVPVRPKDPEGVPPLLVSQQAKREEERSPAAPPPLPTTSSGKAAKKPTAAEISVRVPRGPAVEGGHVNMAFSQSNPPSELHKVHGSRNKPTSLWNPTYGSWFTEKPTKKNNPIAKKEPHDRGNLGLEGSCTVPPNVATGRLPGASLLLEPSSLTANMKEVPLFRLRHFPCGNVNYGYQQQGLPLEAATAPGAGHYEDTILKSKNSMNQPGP
Target sequence in this assay (Q96SW2 whole entry): as the sequence (Q96SW2 whole entry partner) above

[16] = molecular target: T2, Protein cereblon/ALK tyrosine kinase receptor; test: Protac activity at CRBN/ALK in human SR cells assessed as induction of ALK degradation at 0.05 to 500 nM by Western blot analysis relative to control; assay type: cell-based; details: dose 0.05-500 nM
SR [17] = test: Potency index, ratio of ceritinib IC50 to test compound IC50 for antiproliferative activity against ALK positive human SR cells; assay type: functional
[18] = molecular target: T2, Protein cereblon/ALK tyrosine kinase receptor; test: Protac activity at CRBN/ALK in human SR cells assessed as increase in ALK degradation at 50 nM in presence of MLN4924/MG132 by Western blot analysis; assay type: cell-based
[19] = molecular target: T3, ALK tyrosine kinase receptor (Homo sapiens, UniProt Q9UM73); test: Inhibition of ALK phosphorylation in human SR cells at 0.5 nM; assay type: cell-based
Target sequence in this assay (Q9UM73 19-1620 limits assumed): as the sequence (Q9UM73 19-1620 limits assumed) above

[20] = molecular target: T3, ALK tyrosine kinase receptor; test: Inhibition of ALK in human SR cells assessed as reduction in STAT3 phosphorylation at 50 nM; assay type: cell-based
Target sequence in this assay (Q9UM73 19-1620 limits assumed): as above

[21] = molecular target: T3, ALK tyrosine kinase receptor; test: Inhibition of ALK (unknown origin)
Target sequence in this assay (Q9UM73 whole entry): as the sequence (Q9UM73 whole entry) above

SR [22] = test: Induction of cell cycle arrest in human SR cells assessed as increase in accumulation at G1/S phase at 100 nM incubated for 24 hrs; assay type: functional, cell-based
SR [23] = test: Induction of cell cycle arrest in human SR cells assessed as increase in accumulation at S phase at 100 nM incubated for 24 hrs; assay type: functional, cell-based
[24] = molecular target: T2, Protein cereblon/ALK tyrosine kinase receptor; test: Protac activity at CRBN/ALK in human SR cells assessed as increase in ALK degradation at 200 nM by Western blot analysis relative to control; assay type: cell-based
[25] = molecular target: T2, Protein cereblon/ALK tyrosine kinase receptor; test: Protac activity at CRBN/ALK in human SR cells assessed as increase in ALK degradation at 50 nM in presence of MG132 by Western blot analysis; assay type: cell-based

T1 sequence (P40337 whole entry partner): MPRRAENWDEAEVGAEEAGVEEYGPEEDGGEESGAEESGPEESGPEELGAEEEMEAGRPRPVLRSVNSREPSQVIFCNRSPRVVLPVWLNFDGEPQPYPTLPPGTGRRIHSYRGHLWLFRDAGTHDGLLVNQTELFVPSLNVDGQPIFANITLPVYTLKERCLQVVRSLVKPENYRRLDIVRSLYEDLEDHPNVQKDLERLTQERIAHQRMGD
T1 sequence (Q9UM73 19-1620 limits assumed): as the sequence (Q9UM73 19-1620 limits assumed) above

Compound: CCc1cc2c(cc1N1CCC(NC(=O)CCOCCOCCOCCOCCNc3cccc4c3C(=O)N(C3CCC(=O)NC3=O)C4=O)CC1)C(C)(C)c1[nH]c3cc(C#N)ccc3c1C2=O (stereo not given)
pIC50 (SR [1]): 8.23

Compound: CCc1cc2c(cc1N1CCC(N)CC1)C(C)(C)c1[nH]c3cc(C#N)ccc3c1C2=O
pIC50 (SR [1]): 8.55

Compound: CCc1cc2c(cc1N1CCC(N3CCN(C(=O)CCCCCNc4cccc5c4CN(C4CCC(=O)NC4=O)C5=O)CC3)CC1)C(C)(C)c1[nH]c3cc(C#N)ccc3c1C2=O (stereo not given)
pIC50 (SR [1]): 8.40

Compound: CCc1cc2c(cc1N1CCC(N3CCN(C(=O)CCCCCCNc4cccc5c4CN(C4CCC(=O)NC4=O)C5=O)CC3)CC1)C(C)(C)c1[nH]c3cc(C#N)ccc3c1C2=O (stereo not given)
pIC50 (SR [1]): 8.04

Compound: Cc1cc(Nc2ncc(Cl)c(Nc3ccccc3S(=O)(=O)C(C)C)n2)c(OC(C)C)cc1C1CCNCC1 [CERITINIB]
pIC50 (SR [1]): 8.66

Activity [2]: Active
Compound: CCc1cc2c(cc1N1CCC(N3CCN(C(=O)CNc4cccc5c4C(=O)N(C4CCC(=O)NC4=O)C5=O)CC3)CC1)C(C)(C)c1[nH]c3cc(C#N)ccc3c1C2=O (stereo not given)
pIC50 (SR [1]): 8.39

Activity [3]: Active
Activity [4]: 0.66
Activity [5]: 1.05
Activity [6]: 0.82
Activity [7]: 0.55
Activity [8]: 0.47
Compound: CCc1cc2c(cc1N1CCC(N3CCN(C(=O)CCCNc4cccc5c4C(=O)N(C4CCC(=O)NC4=O)C5=O)CC3)CC1)C(C)(C)c1[nH]c3cc(C#N)ccc3c1C2=O (stereo not given)
pIC50 (SR [1]): 7.89

Compound: CCc1cc2c(cc1N1CCC(NC(=O)CNc3cccc4c3C(=O)N(C3CCC(=O)NC3=O)C4=O)CC1)C(C)(C)c1[nH]c3cc(C#N)ccc3c1C2=O (stereo not given)
pIC50 (SR [1]): 7.87

Compound: CCc1cc2c(cc1N1CCC(N3CCN(CCCCC#Cc4cccc5c4CN(C4CCC(=O)NC4=O)C5=O)CC3)CC1)C(C)(C)c1[nH]c3cc(C#N)ccc3c1C2=O (stereo not given)
pIC50 (SR [1]): 8.92

Compound: CCc1cc2c(cc1N1CCC(N3CCN(C(=O)CCCNc4cccc5c4CN(C4CCC(=O)NC4=O)C5=O)CC3)CC1)C(C)(C)c1[nH]c3cc(C#N)ccc3c1C2=O (stereo not given)
pIC50 (SR [1]): 8.48

Activity [2]: Active
Activity [9]: 0.96
Activity [10]: 1.14
Activity [11]: 1.04
Activity [12]: 0.93
Activity [13]: 0.43
Compound: CCc1cc2c(cc1N1CCC(N3CCN(C(=O)CCCCC(=O)NC(C(=O)N4C[C@H](O)C[C@H]4C(=O)NCc4ccc(-c5scnc5C)cc4)C(C)(C)C)CC3)CC1)C(C)(C)c1[nH]c3cc(C#N)ccc3c1C2=O (single isomer, unassigned)
pIC50 (SR [1]): 7.49

Compound: CCc1cc2c(cc1N1CCC(N3CCNCC3)CC1)C(C)(C)c1[nH]c3cc(C#N)ccc3c1C2=O
pIC50 (SR [1]): 8.31

Activity [3]: Active
Activity [4]: 0.48
DC50 [15]: 6300 nM
Emax [16]: 87.7%
Activity [18]: inactive
inhibition [19]: inactive
inhibition [20]: inactive
pIC50 [21]: 8.33
Activity [24]: > 50%
Activity [25]: inactive
Activity [5]: 0.9
Activity [6]: 0.67
Activity [7]: 0.24
Activity [8]: 0.27
Compound: CCc1cc2c(cc1N1CCC(N3CCN(C(=O)CNc4cccc5c4CN(C4CCC(=O)NC4=O)C5=O)CC3)CC1)C(C)(C)c1[nH]c3cc(C#N)ccc3c1C2=O (stereo not given)
pIC50 (SR [1]): 9.30
Ratio (SR [14]): 6
Ratio (SR [17]): 5
Activity (SR [22]): Active
Activity (SR [23]): inactive

Compound: Cc1cc(Nc2ncc(Cl)c(Nc3ccccc3S(=O)(=O)C(C)C)n2)c(OC(C)C)cc1C1CCN(C(=O)NCCNC(=O)CNc2cccc3c2C(=O)N(C2CCC(=O)NC2=O)C3=O)CC1 (stereo not given)
pIC50 (SR [1]): 8.07

Compound: CCc1cc2c(cc1N1CCN(C(=O)CCCCCNc3cccc4c3C(=O)N(C3CCC(=O)NC3=O)C4=O)CC1)C(C)(C)c1[nH]c3cc(C#N)ccc3c1C2=O (stereo not given)
pIC50 (SR [1]): 7.82

Compound: CCc1cc2c(cc1N1CCC(NC(=O)CCOCCOCCNc3cccc4c3C(=O)N(C3CCC(=O)NC3=O)C4=O)CC1)C(C)(C)c1[nH]c3cc(C#N)ccc3c1C2=O (stereo not given)
pIC50 (SR [1]): 7.92

Compound: CCc1cc2c(cc1N1CCC(N3CCN(C(=O)CCOCCOCCNc4cccc5c4C(=O)N(C4CCC(=O)NC4=O)C5=O)CC3)CC1)C(C)(C)c1[nH]c3cc(C#N)ccc3c1C2=O (stereo not given)
pIC50 (SR [1]): 8.60

Activity [3]: Active
Activity [4]: 0.96
Activity [5]: 1.01
Activity [6]: 1.03
Activity [7]: 0.7
Activity [8]: 0.53
Compound: CCc1cc2c(cc1N1CCC(N3CCN(C(=O)CCOCCOCCOCCOCCNc4cccc5c4C(=O)N(C4CCC(=O)NC4=O)C5=O)CC3)CC1)C(C)(C)c1[nH]c3cc(C#N)ccc3c1C2=O (stereo not given)
pIC50 (SR [1]): 8.51
